Laboratory results reported in ChEMBL document CHEMBL5143575, “Anti-Lea monoclonal antibody SPM 522 recognizes an extended Lea epitope” (Bioorg Med Chem, 2022).

How the values were obtained:
[1] = Inhibition of (Le(a)Le(x))14-BSA conjugate binding to mouse Anti-Le(a) monoclonal antibody SPM 522 preincubated with mAb for 1 hr followed by incubation with immobilized antigen BSA-conjugate for 3 hrs by competitive ELISA
Mus musculus = organism: Mus musculus; assay: Inhibition of (Le(a)Le(x))14-BSA conjugate binding to mouse Anti-Le(a) monoclonal antibody SPM 522 assessed as change in free energy preincubated with mAb for 1 hr followed by incubation with immobilized antigen BSA-conjugate for 3 hrs by competitive ELISA relative to control; settings: time 4.0 hrs

Structure (SMILES) | IC50 [1] | deltaG (Mus musculus)
CO[C@@H]1O[C@H](CO)[C@@H](O[C@@H]2O[C@@H](C)[C@H](O)[C@@H](O)[C@H]2O)[C@H](O[C@@H]2O[C@H](CO)[C@H](O)[C@H](O)[C@H]2O)[C@H]1NC(C)=O | 7020 µM | 0.5 kcal/mol
CCCCCCO[C@@H]1O[C@H](CO)[C@@H](O[C@@H]2O[C@H](CO)[C@H](O)[C@H](O[C@@H]3O[C@H](CO)[C@@H](O)[C@H](O[C@@H]4O[C@H](CO)[C@H](O)[C@H](O)[C@H]4O)[C@H]3NC(C)=O)[C@H]2O)[C@H](O[C@@H]2O[C@@H](C)[C@@H](O)[C@@H](O)[C@@H]2O)[C@H]1NC(C)=O (stereo in doubt) | 1350 µM | 2.4 kcal/mol
CCCCCCO[C@@H]1O[C@H](CO)[C@@H](O[C@@H]2O[C@H](CO)[C@H](O)[C@H](O[C@@H]3O[C@H](CO)[C@@H](O)[C@H](O[C@@H]4O[C@H](CO)[C@H](O)[C@H](O)[C@H]4O)[C@H]3NC(C)=O)[C@H]2O)[C@H](O)[C@H]1NC(C)=O | 1200 µM | 2.3 kcal/mol
CO[C@@H]1O[C@H](CO)[C@@H](O[C@@H]2O[C@@H](C)[C@@H](O)[C@@H](O)[C@@H]2O)[C@H](O[C@@H]2O[C@H](CO)[C@H](O)[C@H](O)[C@H]2O)[C@H]1NC(C)=O | 3090 µM | 0 kcal/mol

The next compounds have a lower IC50 [1] than those just listed; values first:

IC50 [1] | deltaG (Mus musculus) | Structure (SMILES)
538 µM | 1.8 kcal/mol | CO[C@@H]1O[C@H](CO)[C@H](O)[C@H](O[C@@H]2O[C@H](CO)[C@@H](O)[C@H](O[C@@H]3O[C@H](CO)[C@H](O)[C@H](O)[C@H]3O)[C@H]2NC(C)=O)[C@H]1O
23 µM | 0 kcal/mol | CCCCCCO[C@@H]1O[C@H](CO)[C@@H](O[C@@H]2O[C@H](CO)[C@H](O)[C@H](O[C@@H]3O[C@H](CO)[C@@H](O[C@@H]4O[C@@H](C)[C@@H](O)[C@@H](O)[C@@H]4O)[C@H](O[C@@H]4O[C@H](CO)[C@H](O)[C@H](O)[C@H]4O)[C@H]3NC(C)=O)[C@H]2O)[C@H](O[C@@H]2O[C@@H](C)[C@@H](O)[C@@H](O)[C@@H]2O)[C@H]1NC(C)=O
